Assays:
Assay type in all cases: in vivo
Phakopsora pachyrhizi [1] = test: Leaf disc test with Phakopsora pachyrhizi on glyphosate resistant soybean (Example 1)
Text: (§1) A synergistic effect exists whenever the action of an active ingredient combination is greater than the action expected from the effect of the individual components.
(§2) The action to be expected (E) for a given active ingredient combination obeys the so-called COLBY formula and can be calculated as follows (COLBY, S. R. “Calculating synergistic and antagonistic responses of herbicide combination”. Weeds, Vol. 15, pages 20-22; 1967):
(§3) ppm=milligrams of active ingredient (=a.i.) per litre of spray mixture X=% action by active ingredient I using p ppm of active ingredient Y=% action by active ingredient II using q ppm of active ingredient.
(§4) According to Colby, the expected (additive) action of active ingredients I+II using p+q ppm of active ingredient is
(§5) If the action actually observed (O) is greater than the expected action (E), then the action of the combination is superadditive, i.e. there is a synergistic effect.
A series of leaf disc tests were conducted to show the effects of tank mixtures of glyphosate and fungicides on Asian soybean rust. The soybean variety tested was NK Brand S40-R9 glyphosate resistant soybean. The leaf source for the testing was the first trifoliate leaf. Six (6) repetitions for each formulation and at each rate were conducted. Treatment of the leaf with the recited active ingredients was conducted 29 days after planting. The leaves were inoculated with Phakopsora pachyrhizi (Asian soybean rust (ASR)) one (1) day after treatment. Evaluation of the leaf was conducted ten (10) days after inoculation and the mean percent infestation of the six trials is reported in Table 1.
The glyphosate source was Zapp® QI herbicide (Syngenta Corp.), containing the potassium salt of glyphosate as well as an adjuvant system. The fungicide used was Priori® Xtra (Syngenta Corp.), which is a suspension concentrate containing 200 g/L of azoxystrobin (AZ) and 80 g/L of cyproconazole (CCZ). The rates of the active ingredients used in the tests are set forth in the Table as mg active ingredient (a.i.)/L.

Phakopsora pachyrhizi [2] = test: Leaf disc test with Phakopsora pachyrhizi on glyphosate sensitive soybean, leaf disks treated (Example 4)
Text: as §1, §2, §3, §4, §5
A series of leaf disc tests were conducted to show the effects of tank mixtures of glyphosate and pesticides or plant activators on Asian soybean rust. The soybean variety tested was brand Williams82 glyphosate sensitive soybean. The leaf source for the testing was the first trifoliate leaf. Six (6) repetitions for each formulation and at each rate were conducted. Treatment of the leaf disks with the recited active ingredients was conducted 4 weeks after planting. The leaves were inoculated with Phakopsora pachyrhizi (Asian soybean rust (ASR)) one (1) day after treatment. Evaluation of the leaf was conducted ten (10) days after inoculation and the mean percent infestation of the six repetitions is reported in Tables 8-11.
As glyphosate source Touchdown® HiTech or Zapp® QI was used. The fungicides were used as commercial formulations: Bion® WG50 plant activator comprising acibenzolar-S-methyl (Syngenta Corp.), Opus® SC125 fungicide comprising epoxiconazole commercially (BASF AG), Tilt® EC250 fungicide comprising propiconazole (Syngenta Corp.), Quadris® SC250 fungicide comprising azoxystrobin (Syngenta Corp.). The rates of the active ingredients used in the tests are set in Tables 8-11 as mg active ingredient (a.i.)/L.

Phakopsora pachyrhizi [3] = test: Application on whole plants: leaf disc test with Phakopsora pachyrhizi on glyphosate sensitive soybean (Example 5)
Text: as §1, §2, §3, §4, §5
A series of leaf disc tests were conducted to show the effects of tank mixtures of glyphosate and pesticides or plant activators on Asian soybean rust. The soybean variety tested was brand Williams82 glyphosate sensitive soybean. The leaf source for the testing was the first trifoliate leaf. Six (6) repetitions for each formulation and at each rate were conducted. Treatment of whole plants with the recited active ingredients was conducted 4 weeks after planting. After application, leaf disks were cut and inoculated with Phakopsora pachyrhizi (Asian soybean rust (ASR)) one (1) day after treatment. Evaluation of the leaf was conducted ten (10) days after inoculation and the mean percent infestation of the six repetitions is reported in Tables 12-14.
As glyphosate source Touchdown® HiTech or Zapp® QI was used. The fungicides were used as commercial formulations: Cantus® WG50 fungicide comprising boscalid (BASF AG), Quadris® SC250 fungicide and Bion® WG50 plant activator comprising acibenzolar-S-methyl. The rates of the active ingredients used in the tests are set in Tables 12-14 as g active ingredient (a.i.)/hectare (ha). The spray volume was 200 l/ha.

[4] = Glyphosate TD HiTech SL523 2.5 mg a.i./L, Table 9 (check 77)
[5] = Glyphosate TD HiTech SL523 2.5 mg a.i./L, Table 11 (check 80)
[6] = Glyphosate TD HiTech SL523 7.4 mg a.i./L, Table 11 (check 80)
[7] = Glyphosate TD HiTech SL523 7.4 mg a.i./L, Tables 9-10 (check 77)
[8] = Glyphosate TD HiTech SL523 22.2 mg a.i./L
[9] = Glyphosate Zapp QI SL500 22.2 mg a.i./L
[10] = Glyphosate Zapp QI SL500 66.7 mg a.i./L
[11] = Glyphosate TD HiTech SL523 200 g a.i./ha
[12] = Glyphosate TD HiTech SL523 500 g a.i./ha
[13] = Glyphosate TD HiTech SL523 600 g a.i./ha

In the case of `O=C(O)CNCP(=O)(O)O` [Glyphosate, glyphosate], the “% Leaf attack” value (Phakopsora pachyrhizi [1]; Glyphosate 0.1 mg a.i./L (Zapp QI)) is reported as 90%, the “% Leaf attack” value (Phakopsora pachyrhizi [1]; Glyphosate 0.39 mg a.i./L (Zapp QI)) is reported as 90% and the “% Leaf attack” value (Phakopsora pachyrhizi [1]; Glyphosate 1.56 mg a.i./L (Zapp QI)) is reported as 100%. The “% Leaf attack” value (Phakopsora pachyrhizi [1]; Glyphosate 6.25 mg a.i./L (Zapp QI)) was 100%, the “% Leaf attack” value (Phakopsora pachyrhizi [1]; Glyphosate 25 mg a.i./L (Zapp QI)) was 100% and the “% Leaf attack” value (Phakopsora pachyrhizi [1]; Glyphosate 100 mg a.i./L (Zapp QI)) was 100%. For the same compound, the inhibition at 0.1 µg/mL (Phakopsora pachyrhizi [1]; Phakopsora pachyrhizi, foliar, Glyphosate 0.1 mg a.i./L (Zapp QI), read-out: % Activity observed) was 6%, the inhibition at 0.39 µg/mL (Phakopsora pachyrhizi [1]; Phakopsora pachyrhizi, foliar, Glyphosate 0.39 mg a.i./L (Zapp QI), read-out: % Activity observed) was 6% and the inhibition at 1.56 µg/mL (Phakopsora pachyrhizi [1]; Phakopsora pachyrhizi, foliar, Glyphosate 1.56 mg a.i./L (Zapp QI), read-out: % Activity observed) was 0%. The inhibition at 6.25 µg/mL (Phakopsora pachyrhizi [1]; Phakopsora pachyrhizi, foliar, Glyphosate 6.25 mg a.i./L (Zapp QI), read-out: % Activity observed) was 0%, the inhibition at 25 µg/mL (Phakopsora pachyrhizi [1]; Phakopsora pachyrhizi, foliar, Glyphosate 25 mg a.i./L (Zapp QI), read-out: % Activity observed) was 0% and the inhibition at 100 µg/mL (Phakopsora pachyrhizi [1]; Phakopsora pachyrhizi, foliar, Glyphosate 100 mg a.i./L (Zapp QI), read-out: % Activity observed) was 0%. It also gave an Activity observed % (Phakopsora pachyrhizi [2]; [4]) of 0%, a Leaf attack % (Phakopsora pachyrhizi [2]; [4]) of 80% and an Activity observed % (Phakopsora pachyrhizi [2]; [5]) of 8%. It also gave a Leaf attack % (Phakopsora pachyrhizi [2]; [5]) of 74%, an Activity observed % (Phakopsora pachyrhizi [2]; [6]) of 0% and a Leaf attack % (Phakopsora pachyrhizi [2]; [6]) of 80%. It also gave an Activity observed % (Phakopsora pachyrhizi [2]; [7]) of 0%, a Leaf attack % (Phakopsora pachyrhizi [2]; [7]) of 80% and an Activity observed % (Phakopsora pachyrhizi [2]; [8]) of 0%. For the same compound, the Leaf attack % (Phakopsora pachyrhizi [2]; [8]) was 80%, the Activity observed % (Phakopsora pachyrhizi [2]; [9]) was 1% and the Leaf attack % (Phakopsora pachyrhizi [2]; [9]) was 68%. The Activity observed % (Phakopsora pachyrhizi [2]; [10]) was 1%, the Leaf attack % (Phakopsora pachyrhizi [2]; [10]) was 68% and the Activity observed % (Phakopsora pachyrhizi [3]; [11]) was 7%. It also gave a Leaf attack % (Phakopsora pachyrhizi [3]; [11]) of 58%, an Activity observed % (Phakopsora pachyrhizi [3]; [12]) of 10% and a Leaf attack % (Phakopsora pachyrhizi [3]; [12]) of 56%. The Activity observed % (Phakopsora pachyrhizi [3]; [13]) was 19% and the Leaf attack % (Phakopsora pachyrhizi [3]; [13]) was 50%.

Reference: patent US20090023687A1, “Method for Controlling Phytopathogenic Organisms” (SYNGENTA CROP PROTECTION, INC., priority 2005, published 2009)
